Assay results taken from paper PMC4767466, “Identification of a novel platelet antagonist that binds to CLEC-2 and suppresses podoplanin-induced platelet aggregation and cancer metastasis” (Oncotarget, 2015).

Key:
[1] = biological target: T1, CLEC-2 (C-type lectin-like receptor 2) (Homo sapiens, UniProt Q9P126); assay: SPR (Biacore T200, CLEC-2 amine-coupled to CM5 chip, equilibrium fit); assay type: binding
T1 construct: gene CLEC1B; recombinant CLEC-2

[2] = biological target: CLEC-2 (Homo sapiens) (UniProt Q9P126); settings: cited from earlier work
CLEC-2 (Homo sapiens), sequence (Q9P126 whole entry): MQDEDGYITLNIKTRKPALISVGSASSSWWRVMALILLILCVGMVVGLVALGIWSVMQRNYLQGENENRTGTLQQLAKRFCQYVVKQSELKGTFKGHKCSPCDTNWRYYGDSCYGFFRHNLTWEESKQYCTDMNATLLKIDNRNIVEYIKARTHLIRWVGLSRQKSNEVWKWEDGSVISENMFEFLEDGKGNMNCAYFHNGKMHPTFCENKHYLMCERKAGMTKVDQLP

T1 sequence (Q9P126 whole entry): as above

| Kd [1] [µM] | Compound | Kd [2] [µM] |
| --- | --- | --- |
| 33.2 ± 1.9 | O=C(NCCNC(=O)c1cc([N+](=O)[O-])ccc1O)c1ccccc1 [2CP] |  |
|  | podoplanin (from UniProt Q86YL7) | 24.5 |
